Data: patent publication US20210007356A1, “IMIDE DERIVATIVE AND FUNGICIDE CONTAINING SAID DERIVATIVE AS ACTIVE INGREDIENT” (HOKKO CHEMICAL INDUSTRY CO., LTD., priority 2018, published 2021)
Read-outs that look alike come from different tables or passages of the source.

Tests used:
[1] = system: rice blast fungus (Pyricularia grisea); format: in vivo; details: flowable 5,000 ppm, 50 mL irrigation of nursery box, paddy rice; inoculated after 3 weeks; 7 days after inoculation
[2] = system: rice sheath blight fungus (Thanatephorus cucumeris); assay: Test Example 6: control effect against rice sheath blight by box treatment (flowable formulation); details: flowable 5,000 ppm, 50 mL irrigation of nursery box, paddy rice; inoculated after 3 weeks; 7 days after inoculation
[3] = system: rice blast fungus (Pyricularia grisea); format: in vivo; details: 5 g of granule on nursery box, paddy rice; inoculated after 3 weeks; 7 days after inoculation
[4] = system: rice sheath blight fungus (Thanatephorus cucumeris); assay: Test Example 8: control effect against rice sheath blight by box treatment (granule); details: 5 g of granule on nursery box, paddy rice; inoculated after 3 weeks; 7 days after inoculation
[5] = system: rice blast fungus (Pyricularia grisea); format: in vivo; details: flowable 1,000 ppm, 1 mL dripped in paddy water, inoculated after 1 week, 7 days after inoculation
[6] = system: rice sheath blight fungus (Thanatephorus cucumeris); assay: Test Example 10: control effect against rice sheath blight by water surface application (flowable formulation); details: flowable 1,000 ppm, 1 mL dripped in paddy water, inoculated after 1 week, 7 days after inoculation
[7] = system: barley powdery mildew fungus (Erysiphe graminis); assay: Test Example 2: control effect against barley powdery mildew by foliage application; format: in vivo; details: wettable powder diluted to 100 ppm, 10 mL per pot foliage spray on barley; inoculated day after; 7 days after inoculation

Row | SMILES | evaluation value of control effect (from control value, number of lesions) [1] | evaluation value of control effect (from control value, lesion height) [2] | evaluation value of control effect (from control value, number of lesions) [3] | evaluation value of control effect (from control value, lesion height) [4] | evaluation value of control effect (from control value, number of lesions) [5] | evaluation value of control effect (from control value, lesion height) [6] | evaluation value of control effect (from control value, lesion area percentage) [7]
1 | CC(C)CC(C)c1ccccc1N(C(=O)c1cc(Cl)c(Cl)s1)C(=O)c1cn(C)nc1C(F)F (stereo not shown) [1-359] | 5 | 5 | 5 | 5 | 5 | 5 | 4
2 | Cn1cc(C(=O)N(C(=O)c2cc(Cl)nc(Cl)c2)c2ccccc2-c2cc(F)c(F)c(F)c2)c(C(F)F)n1 [1-375] | 5 | 5 | 5 | 5 | 5 | 5 | 4
3 | CC(C)CC(C)c1ccccc1N(C(=O)c1cc(F)nc(F)c1)C(=O)c1cn(C)nc1C(F)F (stereo not shown) [1-380] | 5 | 5 | 5 | 5 | 5 | 5 | 5
4 | Cc1nc(C(F)F)c(C(=O)N(C(=O)c2snc(Cl)c2Cl)c2ccccc2CCC(C)C)s1 [7-37] | 5 | 5 | 5 | 5 | 5 | 5 | 4
5 | Cc1nc(C(F)F)c(C(=O)N(C(=O)c2snc(Cl)c2Cl)c2ccccc2C(C)CC(C)C)s1 (stereo not shown) [7-38, N-(3,4-Dichloroisothiazole-5-carbonyl)-4-(difluoromethyl)-N-{2-(1,3-dimethylbutyl)phenyl}-2-methyl-thiazole-5-carboxamide] | 5 | 5 | 5 | 5 | 5 | 5 | 5
6 | Cc1nc(C(F)F)c(C(=O)N(C(=O)c2snnc2C)c2ccccc2CCC(C)C)s1 [7-151] | 5 | 5 | 5 | 5 | 5 | 5 | 4
7 | Cc1nc(C(F)F)c(C(=O)N(C(=O)c2snnc2C)c2ccccc2C(C)CC(C)C)s1 (stereo not shown) [7-152] | 5 | 5 | 5 | 5 | 5 | 5 | 5
8 | Cc1nc(C(F)F)c(C(=O)N(C(=O)c2snnc2C(F)F)c2ccccc2C(C)CC(C)C)s1 (stereo not shown) [7-176] | 5 | 5 | 5 | 5 | 5 | 5 | 5
9 | Cc1nc(C(F)F)c(C(=O)N(C(=O)c2cc(Cl)nc(Cl)c2)c2ccccc2C(C)CC(C)C)s1 (stereo not shown) [7-188] | 5 | 5 | 5 | 5 | 5 | 5 | 4
10 | Cc1nc(C(F)F)c(C(=O)N(C(=O)c2sc(C)nc2C(F)F)c2ccccc2CCC(C)C)s1 [7-237] | 5 | 5 | 5 | 5 | 5 | 5 | 4
11 | Cc1nc(C(F)F)c(C(=O)N(C(=O)c2scnc2C(F)(F)F)c2ccccc2C(C)CC(C)C)s1 (stereo not shown) [7-250] | 5 | 5 | 5 | 5 | 5 | 5 | 4
12 | Cc1nc(C(F)F)c(C(=O)N(C(=O)c2cccnc2C(F)F)c2ccccc2C(C)CC(C)C)s1 (stereo not shown) [7-270] | 5 | 5 | 5 | 5 | 5 | 5 | 4
13 | Cc1nc(C(F)F)c(C(=O)N(C(=O)c2cc(Cl)c(Cl)s2)c2ccccc2C(C)CC(C)C)s1 (stereo not shown) [7-274] | 5 | 5 | 5 | 5 | 5 | 5 | 4
14 | Cc1nc(C(F)F)c(C(=O)N(C(=O)c2onc(Cl)c2Cl)c2ccccc2C(C)CC(C)C)s1 (stereo not shown) [7-277] | 5 | 5 | 5 | 5 | 5 | 5 | 5
15 | Cc1ncc(C(=O)N(C(=O)c2cc(Cl)no2)c2ccccc2C(C)CC(C)C)s1 (stereo not shown) [7-278] | 5 | 5 | 5 | 5 | 5 | 5 | 4
16 | Cc1nc(C(F)(F)F)c(C(=O)N(C(=O)c2snnc2C)c2c(Br)cc(OC(F)(F)F)cc2Br)s1 [7-280] | 5 | 5 | 5 | 5 | 5 | 5 | 4
17 | Cc1nc(C(F)(F)F)c(C(=O)N(C(=O)c2snnc2C(F)F)c2c(Br)cc(OC(F)(F)F)cc2Br)s1 [7-281] | 5 | 5 | 5 | 5 | 5 | 5 | 4
18 | Cc1nc(C(F)(F)F)c(C(=O)N(C(=O)c2scnc2C(F)F)c2c(Br)cc(OC(F)(F)F)cc2Br)s1 [7-283] | 5 | 5 | 5 | 5 | 5 | 5 | 4
19 | Cc1nc(C(F)F)c(C(=O)N(C(=O)c2cc(F)nc(F)c2)c2ccccc2C(C)CC(C)C)s1 (stereo not shown) [7-288] | 5 | 5 | 5 | 5 | 5 | 5 | 4
